Measured values reported in patent US20240261416A1, “SYNTHESIS OF NOVEL CEREBLON E3 LIGASE LIGANDS, COMPOUNDS FORMED THEREBY, AND PHARMACEUTICAL COMPOSITIONS CONTAINING THEM” (Wisconsin Alumni Research Foundation, priority 2023, published 2024).
Like-named read-outs stand apart in the source and are kept apart here.

Assays:
[1] = in human blood; cited from earlier work
[2] = in-vivo in humans; cited from earlier work
[3] = system: MV4; 11 cells; experiment: flow cytofluorimetric cell cycle analysis; type: cell-based, human; conditions: 48 h
Experimental: (§1) FIGS. 9A-9D. Functional studies of the PROTACs including anti-proliferation, apoptosis, G1 phase arrest, and reduced population in S phase. (FIG. 9A) AlamarBlue™ Cell Viability. […] (FIG. 9B) MV4; 11 cells were treated by indicated dosage of 13 for 48 h followed by flow cytofluorimetric cell cycle analysis. (FIGS. 9C and 9D) MV4; 11 cells were treated by indicated dosage of 13 for 48 h followed by flow cytofluorimetric apoptosis analyses.
(§2) Flow Cytometry Cell apoptosis and cell cycle were detected by Attune Flow cytometer (Thermo Fisher). Cells were seeded in a 6-well plate and treated with the indicated concentrations of compounds for 48 h. For samples for cell apoptosis detection, cells were harvested and incubated in Annexin V-FITC and PI reagents each for 15 minutes (Annexin V-FITC apoptosis detection kit, Invitrogen). For the samples for cell cycle detection, cells were fixed in 70% cold ethanol overnight and stained with PI (500 μg/ml) for 15 minutes. Flow data were analyzed using Flowjo software.

[4] = system: MV4; 11 cells; experiment: flow cytofluorimetric apoptosis analysis; type: cell-based, human; conditions: 48 h
Experimental: as §1, §2

[5] = system: caspase 3 cleavage; experiment: Western blot of caspase 3 and cleaved caspase 3 in MV4; 11 cells; conditions: at 10 nm to 10 µM concentrations

Row | Structure (SMILES) | racemization half-life [1] [h] | racemization half-life [2] [h] | cell cycle effect, in words [3] | cell apoptosis, in words [4] | caspase 3 cleavage, in words [5]
1 | O=C1CCC(N2C(=O)c3ccccc3C2=O)C(=O)N1 (centres unmarked) [thalidomide] | ~2.0 | ~5.0 | – | – | –
2 | Cc1sc2c(c1C)C(c1ccc(Cl)cc1)=N[C@@H](CC(=O)NC1CCN(C(=O)COc3cccc(N4CCC(=O)NC4=O)c3C)CC1)c1nnc(C)n1-2 [Compound 13, (S)-2-(4-(4-chlorophenyl)-2,3,9-trimethyl-6H-thieno[3,2-f][1,2,4]triazolo[4,3-a][1,4]diazepin-6-yl)-N-(1-(2-(3-(2,4-dioxotetrahydropyrimidin-1(2H)-yl)-2-methylphenoxy)acetyl)piperidin-4-yl)acetamide] | – | – | induce G1 phase arrest, decrease the cell population in S phase | induce cell apoptosis in a dose-dependent manner | successful in inducing caspase 3 cleavage
